In publication PMC6173696, “Structural properties of a haemophore facilitate targeted elimination of the pathogen Porphyromonas gingivalis” (Nature Communications, 2018):

Columns and labels:
[1] = tested on: H413 gingival epithelial cells; format: cell-based, Human; settings: concentrations above 0.5 µM; 1 h or 2 h
Protocol: As P8 could penetrate epithelial cells, the cell membrane integrity was tested using lactate dehydrogenase (LDH) assay. LDH is readily released following cellular membrane damage. As per manufacturer’s instructions (Thermo Fisher Scientific, Australia), H413 cells were treated with P8 at various concentrations and incubated for 1 h and 2 h, respectively. The drug solubilisation medium DMSO and metronidazole were used as controls. The positive control provided by the manufacturer was used to determine the maximal LDH release and the ratio of corrected values obtained for the experimental groups relative to maximum LDH release represented cytotoxicity. The fluorescence intensity was recorded on SpetraMax® i3 (Molecular Devices, Australia).
Supplementary Figure 23. (A) UV-vis spectra of 10 µM P8 alone and in the presence of 10 µM HusA. (B) Stability assay of P8 in the presence of gingival epithelial cell lysate. The intensity of P8 fluorescence was applied to monitor the stability of P8 in the presence of cell lysate. (C) Confocal microscope analysis of the progressive uptake of P8 by H413 gingival epithelial cell over a 2 h period.
The fluorescent P8 is shown in red and the nuclei stained by DAPI are shown in blue. Scale bar, 25 µm. (D) Lactate dehydrogenase cytotoxicity assay of H413 gingival epithelial cells treated with P8 at various concentrations for 1 h or 2 h incubation. […]

[2] = tested on: H413 gingival epithelial cell; format: cell-based, Human
Protocol: Human gingival epithelial cells were grown to confluence and seeded on plastic chamber slides (75 × 25 mm^2) for incubation in 5% CO2 atmosphere overnight. Bacterial cells were co-incubated with epithelial cells at 37 °C for 2 h. After exposure to the antibiotics, epithelial cells were washed in PBS and incubated in culture media containing 5% FCS for 24 h. Subsequently, samples in the chamber slides were fixed with 4% fresh paraformaldehyde in PBS for 30 min at room temperature, washed in PBS, and permeabilised by ice-cold methanol for 5 min. Samples were then blocked overnight with 10% FCS supplemented with 0.05% (v/v) Triton X-100 in PBS buffer. Intracellular P. gingivalis was stained using the primary antibody IIB2[44] and fluorochrome-conjugated secondary antibody. […] Labelled epithelial cells with invaded bacteria were detected using an Olympus FV1000 confocal laser scanning microscope. In addition, the intrinsic fluorescence of P8 allowed temporal tracking of internalisation of P8 into epithelial cells in a separate experiment. Live cell images were recorded using a DeltaVision Elite Core Microscope.
Supplementary Figure 23. (A) UV-vis spectra of 10 µM P8 alone and in the presence of 10 µM HusA. (B) Stability assay of P8 in the presence of gingival epithelial cell lysate. The intensity of P8 fluorescence was applied to monitor the stability of P8 in the presence of cell lysate. […]

HusA L123N-V124N = target: T1, HusA L123N-V124N (Porphyromonas gingivalis, UniProt Q7MSY3, L123N/V124N); test: Tryptophan fluorescence quenching assay, HusA mutant L123N-V124N; format: binding; settings: mutant LV123/4NN
T1 sequence (Q7MSY3 24-218 L123N/V124N): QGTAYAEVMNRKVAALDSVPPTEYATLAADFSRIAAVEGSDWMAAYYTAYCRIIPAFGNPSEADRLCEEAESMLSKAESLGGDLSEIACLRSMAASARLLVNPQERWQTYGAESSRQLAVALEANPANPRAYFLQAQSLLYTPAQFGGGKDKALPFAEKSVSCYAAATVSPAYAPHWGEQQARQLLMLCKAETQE
Protocol: The quenching of intrinsic tryptophan fluorescence of HusA upon porphyrin additions was measured using a Carey Eclipse Fluorescence Spectrophotometer (Agilent) set to a photo multiplier effect (PME) of 850. A 5-mm path length quartz cuvette was used and all spectra were acquired at room temperature. Excitation was set to 295 nm and emission was measured from 300 nm to 500 nm using excitation/emission slit widths of 5 nm. Binding assays were performed at a protein concentration of 1 μM HusA in standard buffer at a working volume of 0.5 mL. […] The fluorescence quenching of HusA by PPIX was investigated in a similar manner with the following difference: the fluorescence intensities of ten 1 μM HusA samples were measured each with increasing amounts of PPIX after a 2-h incubation period to allow equilibrium to be reached. See Supplementary Methods for correction for inner filter effect and curve fitting. […]
Correction of inner filter effect and curve fitting in tryptophan fluorescence quenching assays The concentration of NATA was chosen such that the raw fluorescence intensity was similar to the 10 uM concentrations of HusA and mutants used. […] Fluorescence intensity was scaled with respect to the starting florescence and corrected for the inner filter effect. Fluorescence at 335 nm was used to fit binding curves. […]

HusA W130N = target: T2, HusA W130N (Porphyromonas gingivalis, UniProt Q7MSY3, W130N); test: Tryptophan fluorescence quenching assay, HusA mutant W130N; format: binding
T2 sequence (Q7MSY3 24-218 W130N): T1 sequence (Q7MSY3 24-218 L123N/V124N)

[3] = format: physicochemical; settings: aqueous haemin, 5 µM
Protocol: Spectra were recorded in 0.1 M NaCl with 0.1 M of the following buffers: citrate, pH 5.0; BisTris-HCl, pH 5.5; BisTris-HCl, pH 5.75: BisTris-HCl, pH 6.0; sodium phosphate, pH 6.5; sodium phosphate, pH 7.0; sodium phosphate, pH 7.5; Tris-HCl, pH 8.0; sodium borate, pH 9.0; sodium borate/NaOH, pH 9.8; sodium carbonate, pH 10.0 (not all titration points were collected for each protein)

SMILES | cell toxicity (LDH release) [1] | integrity of epithelial cells (confocal images) ([2]; 20 µM P8) | accumulation in epithelial cells ([2]; over a 2-h period) | reduction of haemin affinity compared to wild-type (HusA L123N-V124N) | reduction of haemin affinity compared to wild-type (HusA W130N) | pKa of acid-alkaline transition [3]
CC1=Cc2cc3[nH]c(cc4nc(cc5[nH]c(cc1n2)cc5C)C(C)=C4CCC(=O)N[C@@H](CCCCNC(=O)OC(C)(C)C)C(=O)NCCn1c([N+](=O)[O-])cnc1C)c(CCC(=O)O)c3C [P8] | does not induce cell toxicity | remain intact | progressive accumulation | – | – | –
C=CC1=C(C)c2cc3[nH]c(cc4nc(cc5[nH]c(cc1n2)c(C)c5CCC(=O)O)C(CCC(=O)O)=C4C)c(C)c3C=C.[Fe+3] [haemin] | – | – | – | > 50% | > 50% | 6.7
